US9902703B2, “Somatostatin modulators and uses thereof” (Crinetics Pharmaceuticals, Inc., priority 2015, dated 2018)
pEC50: −log10 of the molar value.

molecular target: T1, human somatostatin receptor subtype 2 (Homo sapiens, UniProt P30874); experiment: cAMP assay (functional assay for SSTR2 agonists); type: cell-based; conditions: CHO cells expressing human SSTR2; intracellular cAMP with forskolin, HTRF; read-out: SSTR2a EC50
T1 construct: expressed in transfected cells; host or cells: CHO (Chinese hamster ovary) cells, G-418 selected
Procedure, shortened: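 CHO cells expressing human SSTR2 were treated with compound for 15 min at 37° C in buffer with forskolin, 0.2 mM IBMX and 0.1% BSA. Intracellular cAMP was read by HTRF after 1-24 h lysis at room temperature, and EC50 came from cAMP versus compound concentration curves.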

T1 sequence (P30874 whole entry): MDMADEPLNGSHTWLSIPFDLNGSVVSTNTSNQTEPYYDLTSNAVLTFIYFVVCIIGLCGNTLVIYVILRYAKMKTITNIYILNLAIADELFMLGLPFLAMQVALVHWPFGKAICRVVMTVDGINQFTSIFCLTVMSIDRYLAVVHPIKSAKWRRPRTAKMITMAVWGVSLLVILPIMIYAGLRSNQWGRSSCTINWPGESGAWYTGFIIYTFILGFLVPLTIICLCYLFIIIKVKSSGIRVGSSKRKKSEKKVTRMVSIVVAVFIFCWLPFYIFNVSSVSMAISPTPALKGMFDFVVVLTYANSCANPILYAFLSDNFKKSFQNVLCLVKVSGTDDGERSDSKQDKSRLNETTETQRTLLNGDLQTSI

pEC50	SMILES
> 7.00	Cc1cc(Cl)cc(N2C=Nc3cc(C)c(-c4cc(Cl)cc(C5(C#N)CC5)c4)cc3C2C(=O)N(C)C[C@@H]2CCCN2)c1 (stereo partly drawn) [Compound 2-17, 6-[3-chloro-5-(1-cyanocyclopropyl)phenyl]-3-(3-chloro-5-methylphenyl)-N,7-dimethyl-N-[(2S)-pyrrolidin-2-ylmethyl]-3,4-dihydroquinazoline-4-carboxamide]
> 7.00	Cc1cc(Cl)cc(N2C=Nc3cc(C)c(-c4cncc(C#N)c4)cc3C2C(=O)N(C)C[C@@H]2CCCN2)c1 (stereo partly drawn) [Compound 2-18, 3-(3-chloro-5-methylphenyl)-6-(5-cyanopyridin-3-yl)-N,7-dimethyl-N-[(2S)-pyrrolidin-2-ylmethyl]-3,4-dihydroquinazoline-4-carboxamide]
> 7.00	Cc1cc(Cl)cc(N2C=Nc3cc(C)c(-c4cc(C(F)(F)F)cnc4Cl)cc3C2C(=O)N(C)C[C@@H]2CCCN2)c1 (stereo partly drawn) [Compound 2-19, 6-[2-chloro-5-(trifluoromethyl)pyridin-3-yl]-3-(3-chloro-5-methylphenyl)-N,7-dimethyl-N-[(2S)-pyrrolidin-2-ylmethyl]-3,4-dihydroquinazoline-4-carboxamide]
> 7.00	Cc1cc(Cl)cc(N2C=Nc3cc(C)c(-c4cc(F)cc(C(F)(F)F)c4)cc3C2C(=O)N(C)C[C@@H]2CCCN2)c1 (stereo partly drawn) [Compound 2-20, 3-(3-chloro-5-methylphenyl)-6-[3-fluoro-5-(trifluoromethyl)phenyl]-N,7-dimethyl-N-[(2S)-pyrrolidin-2-ylmethyl]-3,4-dihydroquinazoline-4-carboxamide]
> 7.00	Cc1cc(Cl)cc(N2C=Nc3cc(C)c(-c4cc(O)cc(F)c4)cc3C2C(=O)N(C)C[C@@H]2CCCN2)c1 (stereo partly drawn) [Compound 2-21, 3-(3-chloro-5-methylphenyl)-6-(3-fluoro-5-hydroxyphenyl)-N,7-dimethyl-N-[(2S)-pyrrolidin-2-ylmethyl]-3,4-dihydroquinazoline-4-carboxamide]
> 7.00	COc1cc(C#N)cc(-c2cc3c(cc2C)N=CN(c2cc(C)cc(Cl)c2)C3C(=O)N(C)C[C@@H]2CCCN2)c1 (stereo partly drawn) [Compound 2-24, 3-(3-chloro-5-methylphenyl)-6-(3-cyano-5-methoxyphenyl)-N,7-dimethyl-N-[(2S)-pyrrolidin-2-ylmethyl]-3,4-dihydroquinazoline-4-carboxamide]
6.00 to 7.00	Cc1cc(Cl)cc(N2C=Nc3cc(C)c(-c4cc(C)oc4C)cc3C2C(=O)N(C)C[C@@H]2CCCN2)c1 (stereo partly drawn) [Compound 2-25, 3-(3-chloro-5-methylphenyl)-6-(2,5-dimethylfuran-3-yl)-N,7-dimethyl-N-[(2S)-pyrrolidin-2-ylmethyl]-3,4-dihydroquinazoline-4-carboxamide]
6.00 to 7.00	Cc1cc(Cl)cc(N2C=Nc3cc(C)c(-c4ccncc4Cl)cc3C2C(=O)N(C)C[C@@H]2CCCN2)c1 (stereo partly drawn) [Compound 2-26, 3-(3-chloro-5-methylphenyl)-6-(3-chloropyridin-4-yl)-N,7-dimethyl-N-[(2S)-pyrrolidin-2-ylmethyl]-3,4-dihydroquinazoline-4-carboxamide]
6.00 to 7.00	Cc1cc(Cl)cc(N2C=Nc3cc(C)c(-c4ccnc(C#N)c4)cc3C2C(=O)N(C)C[C@@H]2CCCN2)c1 (stereo partly drawn) [Compound 2-27, 3-(3-chloro-5-methylphenyl)-6-(2-cyanopyridin-4-yl)-N,7-dimethyl-N-[(2S)-pyrrolidin-2-ylmethyl]-3,4-dihydroquinazoline-4-carboxamide]
> 7.00	COc1c(C#N)cccc1-c1cc2c(cc1C)N=CN(c1cc(C)cc(Cl)c1)C2C(=O)N(C)C[C@@H]1CCCN1 (stereo partly drawn) [Compound 2-28, 3-(3-chloro-5-methylphenyl)-6-(3-cyano-2-methoxyphenyl)-N,7-dimethyl-N-[(2S)-pyrrolidin-2-ylmethyl]-3,4-dihydroquinazoline-4-carboxamide]
> 7.00	Cc1cc(Cl)cc(N2C=Nc3cc(C)c(-c4cc(C(N)=O)ccc4Cl)cc3C2C(=O)N(C)C[C@@H]2CCCN2)c1 (stereo partly drawn) [Compound 2-29, 6-(5-carbamoyl-2-chlorophenyl)-3-(3-chloro-5-methylphenyl)-N,7-dimethyl-N-[(2S)-pyrrolidin-2-ylmethyl]-3,4-dihydroquinazoline-4-carboxamide]
> 7.00	COc1cccc(-c2cc3c(cc2C)N=CN(c2cc(C)cc(Cl)c2)C3C(=O)N(C)C[C@@H]2CCCN2)c1C#N (stereo partly drawn) [Compound 2-30, 3-(3-chloro-5-methylphenyl)-6-(2-cyano-3-methoxyphenyl)-N,7-dimethyl-N-[(2S)-pyrrolidin-2-ylmethyl]-3,4-dihydroquinazoline-4-carboxamide]
6.00 to 7.00	Cc1cc(Cl)cc(N2C=Nc3cc(C)c(-c4cccc(O)c4C#N)cc3C2C(=O)N(C)C[C@@H]2CCCN2)c1 (stereo partly drawn) [Compound 2-31, 3-(3-chloro-5-methylphenyl)-6-(2-cyano-3-hydroxyphenyl)-N,7-dimethyl-N-[(2S)-pyrrolidin-2-ylmethyl]-3,4-dihydroquinazoline-4-carboxamide]
> 7.00	Cc1cc(Cl)cc(N2C=Nc3cc(C)c(-c4ccc(O)c(F)c4)cc3C2C(=O)N(C)C[C@@H]2CCCN2)c1 (stereo partly drawn) [Compound 2-32, 3-(3-chloro-5-methylphenyl)-6-(3-fluoro-4-hydroxyphenyl)-N,7-dimethyl-N-[(2S)-pyrrolidin-2-ylmethyl]-3,4-dihydroquinazoline-4-carboxamide]
> 7.00	Cc1cc(Cl)cc(N2C=Nc3cc(C)c(-c4ccc5[nH]c(=O)[nH]c5c4)cc3C2C(=O)N(C)C[C@@H]2CCCN2)c1 (stereo partly drawn) [Compound 2-34, 3-(3-chloro-5-methylphenyl)-N,7-dimethyl-6-(2-oxo-2,3-dihydro-1H-1,3-benzodiazol-5-yl)-N-[(2S)-pyrrolidin-2-ylmethyl]-3,4-dihydroquinazoline-4-carboxamide]
> 7.00	COc1cc(F)cc(-c2cc3c(cc2C)N=CN(c2cc(C)cc(Cl)c2)C3C(=O)N(C)C[C@@H]2CCCN2)c1 (stereo partly drawn) [Compound 2-35, 3-(3-chloro-5-methylphenyl)-6-(3-fluoro-5-methoxyphenyl)-N,7-dimethyl-N-[(2S)-pyrrolidin-2-ylmethyl]-3,4-dihydroquinazoline-4-carboxamide]
